Experimental data taken from patent publication US20250024871A1, “AMIDE COMPOUNDS AND THEIR USE AS FLAVOR MODIFIERS” (Firmenich Incorporated, priority 2021, published 2025).

Molecular target: T1, T1R umami taste receptor (Homo sapiens, UniProt Q7RTX0+Q7RTX1)
T1 sequence (Q7RTX1 21-841): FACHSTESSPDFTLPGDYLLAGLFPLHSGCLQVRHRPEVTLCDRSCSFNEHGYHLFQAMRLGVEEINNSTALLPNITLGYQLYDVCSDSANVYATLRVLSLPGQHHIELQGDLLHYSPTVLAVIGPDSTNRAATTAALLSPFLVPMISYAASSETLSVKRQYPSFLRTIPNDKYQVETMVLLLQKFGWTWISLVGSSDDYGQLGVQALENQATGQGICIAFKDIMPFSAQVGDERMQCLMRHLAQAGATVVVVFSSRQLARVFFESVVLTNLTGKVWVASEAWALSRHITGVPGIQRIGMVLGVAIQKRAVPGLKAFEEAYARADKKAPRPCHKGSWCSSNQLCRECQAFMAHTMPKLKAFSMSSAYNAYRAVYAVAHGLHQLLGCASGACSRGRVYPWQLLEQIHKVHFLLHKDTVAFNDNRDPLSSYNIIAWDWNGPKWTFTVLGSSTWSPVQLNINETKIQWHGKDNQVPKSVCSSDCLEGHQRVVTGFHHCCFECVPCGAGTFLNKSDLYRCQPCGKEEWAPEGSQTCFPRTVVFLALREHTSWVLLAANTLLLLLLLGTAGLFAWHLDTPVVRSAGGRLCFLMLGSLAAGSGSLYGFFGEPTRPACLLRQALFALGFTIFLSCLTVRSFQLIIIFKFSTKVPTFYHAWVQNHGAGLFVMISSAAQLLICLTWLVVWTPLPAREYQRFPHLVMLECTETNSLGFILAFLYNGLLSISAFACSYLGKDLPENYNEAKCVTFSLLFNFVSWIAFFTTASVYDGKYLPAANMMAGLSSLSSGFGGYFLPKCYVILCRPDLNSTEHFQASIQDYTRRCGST
T1 sequence (Q7RTX0 21-852): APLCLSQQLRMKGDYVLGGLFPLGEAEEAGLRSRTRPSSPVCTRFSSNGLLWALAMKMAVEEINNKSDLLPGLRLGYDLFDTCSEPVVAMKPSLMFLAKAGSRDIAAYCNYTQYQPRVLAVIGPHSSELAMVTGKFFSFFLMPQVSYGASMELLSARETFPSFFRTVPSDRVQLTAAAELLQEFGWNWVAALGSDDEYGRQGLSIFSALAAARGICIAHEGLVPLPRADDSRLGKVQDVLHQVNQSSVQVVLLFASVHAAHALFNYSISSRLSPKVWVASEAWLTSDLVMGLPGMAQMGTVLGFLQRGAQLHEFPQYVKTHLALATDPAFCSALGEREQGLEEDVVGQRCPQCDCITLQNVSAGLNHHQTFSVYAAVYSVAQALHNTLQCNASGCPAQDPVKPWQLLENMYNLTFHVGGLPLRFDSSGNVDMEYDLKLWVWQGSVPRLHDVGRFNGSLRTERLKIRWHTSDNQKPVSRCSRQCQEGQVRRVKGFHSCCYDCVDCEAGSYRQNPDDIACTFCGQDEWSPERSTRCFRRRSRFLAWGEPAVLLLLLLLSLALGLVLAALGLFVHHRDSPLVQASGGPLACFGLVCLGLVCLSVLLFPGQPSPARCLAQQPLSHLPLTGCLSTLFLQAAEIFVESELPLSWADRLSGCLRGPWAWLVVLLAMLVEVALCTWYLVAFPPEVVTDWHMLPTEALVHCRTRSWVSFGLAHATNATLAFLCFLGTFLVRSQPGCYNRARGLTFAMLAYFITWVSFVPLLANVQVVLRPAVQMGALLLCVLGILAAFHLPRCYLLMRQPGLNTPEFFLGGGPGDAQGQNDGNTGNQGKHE
Assay: in vitro cell-based assay having cells that express the T1R umami taste receptor (enhancement of MSG)
Details: for EC50: cells expressing T1R umami taste receptor, read-out: EC50 for enhancement of MSG binding
Description: Each of Compounds 101-183 was synthesized according to one of the general procedures set forth above in Examples 1. Thereafter, the compounds were tested in an in vitro cell-based assay having cells that express the T1R umami taste receptor. Dose-binding curves were recorded and the EC50 was determined for enhancement of MSG binding. Table 2 sets forth the calculated EC50 values for certain tested compounds as well as the MSG enhancement ratio at a particular concentration.

Structure (SMILES)	EC50 [µM]	MSG Enh. Ratio (compound at 50 μM)	MSG Enh. Ratio (compound at 10 μM)	MSG Enh. Ratio (compound at 3 μM)
CCOC(=O)[C@H](Cc1ccccc1)NC(=O)/C=C/c1ccc2c(c1)OCO2 [Compound 160, Ethyl (E)-(3-(benzo[d][1,3]dioxol-5-yl)acryloyl)-L-phenylalaninate]	> 50	3.9 @		
COC(=O)[C@H](Cc1ccccc1)NC(=O)c1ccc(OC)cc1 [Compound 105, Methyl (4-methoxybenzoyl)-L-phenylalaninate]	36	6.5 @		
COC(=O)[C@H](Cc1ccccc1)NC(=O)/C=C/c1cc(OC)ccc1OC [Compound 157, Methyl (E)-(3-(2,5-dimethoxyphenyl)acryloyl)-L-phenylalaninate]	> 50	3.1 @		
CCOC(=O)[C@@H](NC(=O)c1ccc2ccccc2n1)C(C)C [Compound 133, Ethyl (quinoline-2-carbonyl)-L-valinate]	> 50	2.7 @		
COC(=O)CC[C@H](NC(=O)/C=C/C(C)C)C(=O)OC [Compound 173, Dimethyl (E)-(4-methylpent-2-enoyl)-L-glutamate]	> 50	3.1 @		
COC(=O)[C@H](Cc1ccccc1)NC(=O)c1ccc(OC)c(OC)c1 [Compound 123, Methyl (3,4-dimethoxybenzoyl)-L-phenylalaninate]	> 50	2.5 @		
C=C(C)C1CC=C(C(=O)N[C@@H](Cc2ccccc2)C(=O)OC)CC1 (stereo partly drawn) [Compound 166, Methyl (4-(prop-1-en-2-yl)cyclohex-1-ene-1-carbonyl)-L-phenylalaninate]	> 50	4.6 @		
COC(=O)[C@H](Cc1ccccc1)NC(=O)c1ccc(C)cc1 [Compound 104, Methyl (4-methylbenzoyl)-L-phenylalaninate]	> 50		3.3 @	
CCOC(=O)CC[C@H](NC(=O)/C=C/c1ccc(OC)cc1)C(=O)OCC [Compound 151, Diethyl (E)-(3-(4-methoxyphenyl)acryloyl)-L-glutamate]	2			4.2 @
